# Experiments:
# [1] = test system: WT and LFA-1^−/− Jurkat T cells; assay: Calcium flux assay in WT and LFA-1−/− Jurkat T cells; format: cell-based, human
# Method: FIG. 3: Magnesium regulates LFA-1 mediated T cell activation and cytotoxicity as well BiTE- and CAR T-cell functionality. (a) Glycolytic switch of murine WT and LFA-1^−/− CTLs upon injection of anti-CD3/28 Ab in medium containing 1.2 mM Mg^2+ and 0 mM Mg^2+, presented as quantification of summarized data with n=4 mice. (b) Calcium flux in WT and LFA-1^−/− Jurkat T cells stimulated with anti-CD3 Ab in 1.2 mM and 0 mM Mg^2+ medium, respectively. Cells were loaded with Fluo4, and signal intensity as recorded by plate reader, was normalized to unstimulated baseline values. […] Quantified results of n=3 mice with 3 technical replicates each. […] The effector to target cell ratio was 3:1. Results are quantified of n=3 mice with 3 technical replicates each. (e) Representative CD11a (LFA-1) surface expression on human naïve and EM CD8 T cells, PHA T cell blasts and REP T cells, assessed by flow cytometry. […] The effector to target cell ratio was 1:1. Data is presented as quantified results of n=5 healthy donors (f, g, h), n=3 healthy donors with 2 technical replicates each or n=1 healthy donor with 4 technical replicates (j). […] The effector to target cell ratio was 1:1. Data is presented as quantified results of n=1 healthy donor with 4 technical replicates. […] (n) Representative histogram of CD11a expression on PHA-blasts, untransduced T cells as well anti-CD19 expressing CAR T cells. […] Pooled results of n=6 from 2 independent experiments are shown. (p) Abundance of IFNγ in cell culture supernatants corresponding to the conditions depicted in (o) at 24 hours was determined by ELISA (n=8, 3 independent experiments). (q) Tumor growth curves of mice placed on either Mg^2+-depleted diet or respective control diet and treated with either anti-PSMA CAR T cells, untransduced T cells or saline solution. Representative of n=2 independent experiments with n=6 mice per group. Jurkat T cells were loaded with Fluo4 (Invitrogen) at a final concentration of 2 μM in Mg^2+ free self-made medium for 30 min at 37° C. […] Fluorescence intensity over time was measure with a Tecan Spark M10 plate reader. […]
# [2] = test system: murine WT and LFA-1^−/− CTLs; assay: Degranulation marker CD107a on murine WT and LFA-1−/− CTLs; format: cell-based; settings: 8 h anti-CD3/anti-CD28 Ab; 0 mM vs 1.2 mM Mg^2+
# [3] = test system: PHA T cell blasts; assay: CD69 expression of PHA T cell blasts at increasing plate-bound anti-CD3 mAb; format: cell-based, human; settings: augmenting concentrations of plate-bound anti-CD3 mAb; ±Mg^2+
# Method: FIG. 4: Magnesium regulates LFA-1 mediated T cell activation and cytotoxicity within physiologic range • (a) Metabolic flux analysis of human EM CD8 T cells upon supra-physiologic activation with anti-CD3 and anti-CD28 Ab, and additional injection of secondary, cross-linking anti-CD3/28 Ab, in medium containing 1.2 mM Mg^2+, 0 mM Mg^2+, or medium which was reconstituted to 1.2 mM Mg^2+ immediately prior to activation (0→1.2 mM Mg^2+). Pooled results from n=6 healthy donors from 3 independent experiments. (b) CD69 expression of PHA T cell blasts upon activation with indicated concentrations of plate-bound anti-CD3 mAb in ±Mg^2+ containing medium. (c) Caspase-3 activity in EL4 target cells after co-culture for 4 hours with murine WT and LFA-1^−/− CTLs in medium containing 1.2 mM Mg^2+ or 0 mM Mg^2+, in presence of PHA at the indicated concentrations. The effector to target cell ratio was 3:1. Pooled results, n=3-4, from 2 independent experiments. (d) Cytotoxicity assay using WT and LFA-1^−/− OT1 CTLs, co-cultured for 4 hours in medium containing 1.2 mM Mg^2+ or 0 mM Mg^2+ with luciferase-expressing EL4 target cells (pulsed with altered OVA peptides at 10^−6 M). Cytotoxicity was quantified after adding luciferin to medium and measuring luminescent signal intensity. […] Cytotoxicity was quantified after adding luciferin to medium and measuring luminescent signal intensity. […]
# [4] = anti-CD3 Ab, 0 mM vs 1.2 mM Mg^2+
structure (smiles),measurement,setting,value
"[Mg+2] [Mg^2+, Magnesium]",Ca^2+ influx in LFA-1^−/− Jurkat T cells,[1]; [4],independent from extracellular Mg^2+ concentrations
same,Ca^2+ influx in WT Jurkat T cells,[1]; [4],decreased Ca^2+ influx
same,"Prolonged, sustained Ca^2+ influx",[1]; extracellular Mg^2+ depletion,"absence of prolonged, sustained Ca^2+ influx"
same,CD107a degranulation of LFA-1^−/− CTLs,[2],unaffected
same,CD107a degranulation of WT CTLs,[2],reduced CTL degranulation
same,CD69 expression of PHA T cell blasts,[3],less pronounced dependence
